Measurements: patent US11891601B2, “Method to enhance the transcription regulation of SUPT4H on genes containing repetitive nucleotide sequences” (National Yang-Ming University, priority 2018, dated 2024)

Test system: genes with lengthy repetitive nucleotide sequences (Q81-GFP, mutant HTT)
Assay: RT-qPCR of (CAG)n-GFP / HTT mRNA with SUPT4H siRNA knockdown plus tropolone
Format: cell-based
Settings: together with SUPT4H siRNA; only in the genes with lengthy repetitive nucleotide sequences
Procedure: ST14A, Hdh^Q7/Q7 and Hdh^Q111/Q111 were maintained in DMEM (HyClone) supplemented with 15% fetal bovine serum at 33° C. with 5% CO2. ST14A^tet is a genetic engineered stable line, which integrated pTet-Off construct in the genome of ST14A cells and could trigger the expression of pTRE2-(CAG)n-eGFP plasmid in the absence of tetracycline. Lipofectamine 2000 (Invitrogen) transfection reagent was used to deliver siRNA or together with pTRE2-(CAG)n-eGFP into cells. 100 nM of SUPT4H siRNA (DHARMACON, ON-TARGET plus SMART pool, L-048866-01) and (DHARMACON, J-086342-10, 5′-[…]-3′ (SEQ ID NO: 1) and 5′-[…]-(SEQ ID NO: 2)) were used to knock-down SUPT4H expression in mice and rat cells, respectively.
For mammalian cells, total RNA was isolated using TRIzol reagent as per manufacturer's instruction (Invitrogen). […] The amount of cDNAs were quantified by StepOnePlus Real-Time qPCR system (Applied Biosystems) and analyzed by the Quantitative-Comparative CT (AACT) program. Rat SUPT4H, eGFP, mouse SUPT4H, and Mouse HTT were measured using corresponding primer sets as indicated in TABLE 3. snRNA U6 was included as a loading control. […]
Please refer to FIG. 6. […] A relative high signal of R-loops was detected in (CAG)7-eGFP, but this signal is not increased by tropolone. […] RNA was extracted and analyzed by real-time RT-qPCR to measure the quantity of (CAG)n-GFP, SUPT4H and snRNA U6. […]

## O=c1cccccc1O [Tropolone]
  level of transcriptional reduction by SUPT4H siRNA knockdown upon tropolone treatment: further increased
